According to ChEMBL document CHEMBL1201862, “PubChem BioAssay data set” (2004):
Several values for one entry are separate records, joined by “and”; a condition that tells them apart may be missing. Identical values can stand only once.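 1) Cells in 96-well plates. 2) Compound, 48 h, 5 concentrations. 3) Linear interpolation between surrounding doses. 4) Unreached endpoint = highest concentration. The concentration for 50% growth inhibition is given as GI50.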 Activity calls are given as the source filed them. Rule as the data show it: active = GI50 up to about 1.1 µM and inactive = higher.

Tests used:
Test in all cases: inhibition of tumour cell growth, NCI panel, 48 h
NCI-H23 = tested on: NCI-H23
RPMI-8226 = tested on: RPMI-8226
HCC 2998 = tested on: HCC 2998
SR = tested on: SR
786-0 = tested on: 786-0
COLO 205 = tested on: COLO 205
NCI-H522 = tested on: NCI-H522
SW-620 = tested on: SW-620
UACC-62 = tested on: UACC-62
UACC-257 = tested on: UACC-257
MOLT-4 = tested on: MOLT-4
Malme-3M = tested on: Malme-3M
SF-268 = tested on: SF-268
SK-OV-3 = tested on: SK-OV-3
K562 = tested on: K562
SNB-75 = tested on: SNB-75
SF-295 = tested on: SF-295
A498 = tested on: A498

Measured: GI50

O=C(c1ccccc1)C1N=NN(Cc2ccccc2[N+](=O)[O-])C1C(=O)c1ccccc1 (stereo not drawn)
inactive: NCI-H23 > 100 µM | RPMI-8226 > 100 µM | HCC 2998 96.8 µM | SR > 100 µM | 786-0 > 100 µM | COLO 205 34.5 µM | NCI-H522 > 100 µM | SW-620 > 100 µM | UACC-62 > 100 µM | UACC-257 > 100 µM | MOLT-4 > 100 µM | Malme-3M > 100 µM | SF-268 > 100 µM | SK-OV-3 87.3 µM | K562 > 100 µM | SNB-75 41.5 µM | SF-295 > 100 µM

CN1C(=O)C(=CN(C)c2ccccc2)C(=O)N(C)C1=O
inactive: RPMI-8226 > 100 µM | HCC 2998 > 100 µM | SR 37.2 µM | 786-0 > 100 µM | SW-620 80.5 µM | UACC-62 91.6 µM | UACC-257 > 100 µM | MOLT-4 > 100 µM | Malme-3M 36.9 µM | K562 > 100 µM | SNB-75 92.7 µM | A498 95.7 µM | SF-295 > 100 µM

C\C=C/C=C/C=C/C(=O)O
inactive: NCI-H23 > 100 µM | RPMI-8226 > 100 µM | HCC 2998 > 100 µM | 786-0 > 100 µM | COLO 205 > 100 µM | NCI-H522 > 100 µM | SW-620 > 100 µM | UACC-62 > 100 µM | UACC-257 > 100 µM | MOLT-4 > 100 µM | Malme-3M > 100 µM | SF-268 > 100 µM | SK-OV-3 > 100 µM | K562 > 100 µM | SNB-75 > 100 µM | A498 > 100 µM | SF-295 > 100 µM

COc1c(O)c2c3c(c(C)cc(O)c3c1O)C(=O)C(O)(C(C)(C)C(C)=O)C2=O (stereo not drawn)
inactive: NCI-H23 > 100 µM | RPMI-8226 > 100 µM and 82.2 µM | 786-0 > 100 µM | COLO 205 > 100 µM | SW-620 > 100 µM | UACC-257 > 100 µM | MOLT-4 > 100 µM | Malme-3M > 100 µM | SF-268 > 100 µM | SK-OV-3 > 100 µM | SNB-75 > 100 µM and 61 µM

CC1=C(CC2C(=O)N(c3ccccc3)S(=O)(=O)NC2C)C(=O)N(c2ccccc2)S(=O)(=O)N1C (stereo not drawn)
inactive: NCI-H23 > 100 µM | RPMI-8226 > 100 µM | HCC 2998 > 100 µM | SR > 100 µM | 786-0 > 100 µM | COLO 205 > 100 µM | NCI-H522 > 100 µM | SW-620 > 100 µM | UACC-62 > 100 µM | MOLT-4 > 100 µM | Malme-3M > 100 µM | SF-268 > 100 µM | SK-OV-3 > 100 µM | K562 > 100 µM | SNB-75 > 100 µM | SF-295 > 100 µM

CCOc1ccccc1NC(=O)C1=C(C)NC(C)=C(C(=O)Nc2ccccc2OCC)C1c1cccc([N+](=O)[O-])c1
inactive: NCI-H23 > 100 µM | RPMI-8226 8.22 µM | HCC 2998 36.6 µM | 786-0 57.9 µM | COLO 205 > 100 µM | NCI-H522 22.4 µM | SW-620 42.6 µM | UACC-257 27.2 µM | MOLT-4 11.8 µM | Malme-3M 58.3 µM | SF-268 > 100 µM | SK-OV-3 > 100 µM | K562 28.2 µM | SNB-75 11.6 µM | A498 51.2 µM | SF-295 > 100 µM

CC1(O)CC2C(CC1SC1CC3C(CC1(C)O)C3(C)C)C2(C)C (stereo not drawn)
inactive: NCI-H23 41.7 µM | RPMI-8226 41.9 µM | HCC 2998 33.6 µM | 786-0 43.6 µM | COLO 205 35.5 µM | UACC-257 49 µM | MOLT-4 43.1 µM | Malme-3M 29.6 µM | SF-268 > 100 µM | SK-OV-3 54.7 µM | K562 30.5 µM | SNB-75 27.9 µM | SF-295 46 µM

COc1cc2c(cc1OC)C1c3ccccc3C(C#N)(C2)N(C(=O)c2ccccc2)C1O (stereo not drawn)
inactive: NCI-H23 84.5 µM | RPMI-8226 45 µM | HCC 2998 > 100 µM | SR 79.8 µM | 786-0 > 100 µM | COLO 205 22.8 µM | NCI-H522 21.3 µM | SW-620 65 µM | UACC-62 43.7 µM | UACC-257 60.7 µM | MOLT-4 35.2 µM | Malme-3M > 100 µM | SF-268 > 100 µM | SK-OV-3 77.3 µM | K562 36.5 µM | SNB-75 45.7 µM | SF-295 > 100 µM

Fc1cccc(/C=N/C23CC4CC(CC(C4)C2)C3)c1
inactive: NCI-H23 > 100 µM | RPMI-8226 > 100 µM | HCC 2998 > 100 µM | 786-0 > 100 µM | COLO 205 > 100 µM | NCI-H522 > 100 µM | UACC-62 > 100 µM | UACC-257 > 100 µM | MOLT-4 > 100 µM | Malme-3M > 100 µM | SF-268 > 100 µM | SK-OV-3 > 100 µM | K562 > 100 µM | SNB-75 > 100 µM | A498 > 100 µM | SF-295 > 100 µM

Clc1ccc(OCc2nnc3n2N=C(c2ccccc2)CS3)cc1
inactive: NCI-H23 12.2 µM | RPMI-8226 10.8 µM | HCC 2998 16.6 µM | SR 6.5 µM | 786-0 16.2 µM | COLO 205 15.3 µM | NCI-H522 17.4 µM | SW-620 14.7 µM | UACC-62 11.1 µM | UACC-257 14.9 µM | MOLT-4 9.68 µM | Malme-3M 17.9 µM | SF-268 14.3 µM | SK-OV-3 20.7 µM | K562 12.7 µM | SNB-75 27 µM | SF-295 19.3 µM

COc1ccc(C2ON(c3cccc(C)n3)CC=C2C)cc1 (stereo not drawn)
inactive: NCI-H23 27.6 µM | RPMI-8226 30.9 µM | HCC 2998 59.3 µM | SR 30.1 µM | 786-0 44.7 µM | COLO 205 41.4 µM | NCI-H522 19.2 µM | SW-620 30.6 µM | UACC-62 40.7 µM | UACC-257 31 µM | MOLT-4 36.4 µM | Malme-3M 36.6 µM | SF-268 60.1 µM | SK-OV-3 97.9 µM | K562 38.8 µM | SNB-75 29 µM | SF-295 59.8 µM

CC1=CCCC2C(C=O)(C1)CC(C)C2(CO)CC/C(=C/CO)CO (stereo not drawn)
inactive: NCI-H23 90.6 µM | RPMI-8226 67.3 µM | HCC 2998 > 100 µM | 786-0 > 100 µM | COLO 205 > 100 µM | NCI-H522 38.4 µM | SW-620 > 100 µM | UACC-62 > 100 µM | UACC-257 98.9 µM | MOLT-4 44.7 µM | Malme-3M > 100 µM | SK-OV-3 > 100 µM | K562 89.5 µM | SNB-75 37.8 µM | A498 > 100 µM | SF-295 > 100 µM

CCN(c1n[n+]2c(-c3ccccc3)csc2s1)c1n[n+]2c(-c3ccccc3)csc2s1
inactive: NCI-H23 44.6 µM | RPMI-8226 29.6 µM | HCC 2998 > 100 µM | SR 20.5 µM | 786-0 > 100 µM | COLO 205 26.4 µM | NCI-H522 35.6 µM | SW-620 94.6 µM | UACC-62 > 100 µM | UACC-257 36.9 µM | MOLT-4 37.5 µM | Malme-3M 23.3 µM | SF-268 > 100 µM | SK-OV-3 > 100 µM | K562 17.5 µM | SNB-75 > 100 µM | SF-295 > 100 µM
